This note sets out measurements from paper PMC7569734 (Bioorganic & medicinal chemistry letters, 2019).

The subject of experiment [1] is Type 2 GD patient-derived cells (L444P/L444P genotype). Kind of experiment: GPN-induced lysosomal calcium release assay in Type 2 GD patient-derived cells. The class given is cell-based, human. Conditions: for Emax: Homo sapiens, read-out: Lysosomal Ca+2 Assay Emax, GD patient-derived cells, percent activation of basal GPN-induced calcium response measured in the absence of compound.

The next experiment relates to Estrogen Receptor. Kind of experiment: Estrogen receptor assay. It counts as cell-based.

Entries after “also recorded” stand apart in the source; their conditions may differ. Like-named read-outs stand apart in the source and are kept apart here. Marks after values point to notes of the source that are not given here.

Consider `CC/C(=C(\c1ccccc1)c1ccc(OCCN(C)C)cc1)c1ccccc1` [Compound 1, tamoxifen, reference compound], for which the “activity in lysosomal calcium release assay (in words)” value in experiment [1] (GD patient-derived cells) was “partially restores lysosomal calcium in GD patient-derived cells”. Moreover, in the experiment with Estrogen Receptor, the “Estrogen Receptor % Activity @ 10 μM (inhibition)” value stood at 100%^†† and the “estrogen receptor functional activity (in words)” value is “antagonist activity”. Turning to `CCC(Cc1ccc(OCCN(C)C)cc1)c1ccccc1` (centres unmarked) [Compound 5], in experiment [1] (GD patient-derived cells), the “activity in lysosomal calcium release assay (in words)” value is “somewhat more potent than and equally efficacious as tamoxifen”. `CCC(C(=O)c1ccc(OCCN(C)C)cc1)c1ccccc1` (centres unmarked) [Compound 17]: in experiment [1] (GD patient-derived cells), the “activity in lysosomal calcium release assay (in words)” value is on record as “little effect on lysosomal calcium release”. Take `CCCC(C(=O)c1ccc(OCCN(C)C)cc1)c1ccccc1` (centres unmarked) [Compound 18]: in experiment [1] (GD patient-derived cells), the “activity in lysosomal calcium release assay (in words)” value is “little effect on lysosomal calcium release”. On to `CC(C)C(C(=O)c1ccc(OCCN(C)C)cc1)c1ccccc1` (centres unmarked) [Compound 19], for which the Emax in experiment [1] was in the range of 54 to 60%. For the molecule `CCCC(CCC)(C(=O)c1ccc(OCCN(C)C)cc1)c1ccccc1` [Compound 20], in experiment [1], the Emax fell in the range of 54 to 60%. Regarding `CCCCC(C(=O)c1ccc(OCCN(C)C)cc1)c1ccccc1` (centres unmarked) [Compound 21], the “activity in lysosomal calcium release assay (in words)” value in experiment [1] (GD patient-derived cells) is “little effect on lysosomal calcium release; also recorded: no activity”.

With `CC(C)CC(C(=O)c1ccc(OCCN(C)C)cc1)c1ccccc1` (centres unmarked) [Compound 22], the “potency relative to tamoxifen in calcium release assay” value in experiment [1] (GD patient-derived cells, fold more potent than tamoxifen) worked out at 10 fold. `CC(C)CCC(C(=O)c1ccc(OCCN(C)C)cc1)c1ccccc1` (centres unmarked) [Compound 23]: the “efficacy relative to tamoxifen in calcium release assay” value in experiment [1] (GD patient-derived cells, percent more efficacious than tamoxifen) was “roughly 30%”. The “estrogen receptor functional activity (in words)” value in the experiment on Estrogen Receptor (10 μM) is “partial agonist activity”. Regarding `CCCCCCC(C(=O)c1ccc(OCCN(C)C)cc1)c1ccccc1` (centres unmarked) [Compound 24], the “activity in lysosomal calcium release assay (in words)” value in experiment [1] (GD patient-derived cells) is recorded as “little effect on lysosomal calcium release”. In the experiment on Estrogen Receptor (10 μM), the “estrogen receptor functional activity (in words)” value was “partial agonist activity”. With `CCCCC(C(=O)c1ccc(OCCN(C)C)cc1)c1ccccc1CC` (centres unmarked) [Compound 26], in the experiment on Estrogen Receptor (10 μM), the “estrogen receptor functional activity (in words)” value is “antagonist rather than an agonist”.

Consider `CCCCC(C(=O)c1ccc(OCCN(C)C)cc1)c1ccccc1C(C)C` (centres unmarked) [Compound 28], for which the EC50 in experiment [1] (read-out: Lysosomal Ca+2 Assay EC50, GD patient-derived cells, GPN-induced calcium release) amounted to 1480 nM. In the case of `CC(C)CC(C(=O)c1ccc(OCCN(C)C)cc1)c1ccccc1C1CC1` (centres unmarked) [Compound 31], the “estrogen receptor functional activity (in words)” value with Estrogen Receptor (10 μM) was “devoid of estrogenic activity; also recorded: lack of any estrogenic activity”.

By Emax is commonly meant the size of the effect at its maximum, as opposed to the concentration needed. The EC50 is the concentration needed to bring the measured effect to its halfway point.
